Measured values: PMC6220849, “Mechanistic and structural studies of KDM‐catalysed demethylation of histone 1 isotype 4 at lysine 26” (Febs Letters, 2018)
Square brackets hold non-standard residues; d marks the D form. Ends that are not written are not given here. Me3 = N-epsilon-trimethyl on lysine; Lys(Me) = CNCCCC[C@H](N)C(=O)O

B1: H1.4(18–32)K26me3 peptide (histone 1 isotype 4, residues 18-32, N-epsilon-trimethyllysine at K26) (peptide)
peptide: TPVKKKARK(Me3)SAGAAK-NH2
notes: histone H1.4 (histone 1 isotype 4), residues 18-32; only residues 24-29 are seen in the crystal structure; also called H1.4K26me3; H1.4K26me3 peptide; source: synthetic peptide

How the values were obtained:
KDM3A (KDM3A515–1317) = experiment: MALDI-TOF MS demethylation activity assay, KDM3A; type: biochemical, human; parameters: key: 🟢: Indicates that clear demethylation activity was observed; 🟡: Indicates that low level demethylation activity was observed (<10% conversion after 1 h); 🔴: Indicates no activity under the stated conditions (1 μM KDM, 10 μM peptide); 🟡*: *Indicates demethylation activity was only observed with 5 μM KDM; details: peptide as substrate, 1 μM KDM, 10 μM peptide, 50 mM HEPES pH 7.5, Fe(II) 10 μM, ascorbate 100 μM, 2OG 200 μM, 1 mM TCEP, 1 h at 37 °C
Experimental: (§1) Recombinant proteins (1 μM) were incubated with peptides (10 μM, sequences are given in Table S1) in 50 mM HEPES, pH 7.5 with addition of Fe(II) ammonium sulfate (10 μM), sodium ascorbate (100 μM) and 2‐oxoglutaric acid (200 μM). Reactions with KDM3A and KDM7A also contained 1 mM tris(2‐carboxyethyl)phosphine hydrochloride. No enzyme reactions were included as negative controls. Reactions were incubated for 1 h at 37 °C before being quenched with 1 : 1 (v/v) methanol. Analysis was carried out by MALDI‐TOF MS (Bruker, Billerica, MA, USA), with demethylation observed as mass shifts of 14 Da.
(§2) The propensity of human JmjC KDMs to catalyse demethylation at H1.4K26 was investigated using recombinant forms of the catalytic domains of representatives of each human JmjC KDM subfamily (KDM2‐7) and fragment peptides (Table S1) 37. Three peptides with identical sequences, corresponding to residues 18–32 of histone H1.4 (H2N‐[…]‐CONH2), but containing either a N ^ε‐tri‐, di‐ or monomethyllysine at K26 were synthesised (Fig. 1B and Table S1). Activity assays monitoring JmjC KDM‐catalysed demethylation of the peptides were then carried out; samples were prepared containing each peptide, 2‐oxoglutarate (2OG), ferrous iron, ascorbate and individual representatives from each JmjC KDM subfamily (KDM2A 38, KDM3A 21, KDM4E 22, KDM5C 39, 40, KDM6B 41, KDM7A 42).

KDM2A (KDM2A1–557) = experiment: MALDI-TOF MS demethylation activity assay, KDM2A; type: biochemical, human; parameters: key: 🟢: Indicates that clear demethylation activity was observed; 🟡: Indicates that low level demethylation activity was observed (<10% conversion after 1 h); 🔴: Indicates no activity under the stated conditions (1 μM KDM, 10 μM peptide); 🟡*: *Indicates demethylation activity was only observed with 5 μM KDM; details: peptide as substrate, 1 μM KDM, 10 μM peptide, 50 mM HEPES pH 7.5, Fe(II) 10 μM, ascorbate 100 μM, 2OG 200 μM, 1 h at 37 °C
Experimental: as §1, §2

KDM4D (KDM4D1–359) = experiment: MALDI-TOF MS demethylation activity assay, KDM4D; type: biochemical, human; parameters: key: 🟢: Indicates that clear demethylation activity was observed; 🟡: Indicates that low level demethylation activity was observed (<10% conversion after 1 h); 🔴: Indicates no activity under the stated conditions (1 μM KDM, 10 μM peptide); 🟡*: *Indicates demethylation activity was only observed with 5 μM KDM; details: peptide as substrate, 1 μM KDM, 10 μM peptide, 50 mM HEPES pH 7.5, Fe(II) 10 μM, ascorbate 100 μM, 2OG 200 μM, 1 h at 37 °C
Experimental: as §1
(§3) Given the activity observed with KDM4E and KDM7A, we decided to investigate the intra‐subfamily conservation of this demethylation activity. The demethylation activity of the other subfamily members (KDM4A‐D and KDM7B) was therefore screened. […] Note that as with H3K9, demethylation of the monomethylated H1.4K26 peptide was only observed with KDM4E, under the stated conditions 24.

KDM6B (KDM6B1141–1590) = experiment: MALDI-TOF MS demethylation activity assay, KDM6B; type: biochemical, human; parameters: key: 🟢: Indicates that clear demethylation activity was observed; 🟡: Indicates that low level demethylation activity was observed (<10% conversion after 1 h); 🔴: Indicates no activity under the stated conditions (1 μM KDM, 10 μM peptide); 🟡*: *Indicates demethylation activity was only observed with 5 μM KDM; details: peptide as substrate, 1 μM KDM, 10 μM peptide, 50 mM HEPES pH 7.5, Fe(II) 10 μM, ascorbate 100 μM, 2OG 200 μM, 1 h at 37 °C
Experimental: as §1, §2

KDM5C (KDM5C1–765) = experiment: MALDI-TOF MS demethylation activity assay, KDM5C; type: biochemical, human; parameters: key: 🟢: Indicates that clear demethylation activity was observed; 🟡: Indicates that low level demethylation activity was observed (<10% conversion after 1 h); 🔴: Indicates no activity under the stated conditions (1 μM KDM, 10 μM peptide); 🟡*: *Indicates demethylation activity was only observed with 5 μM KDM; details: peptide as substrate, 1 μM KDM, 10 μM peptide, 50 mM HEPES pH 7.5, Fe(II) 10 μM, ascorbate 100 μM, 2OG 200 μM, 1 h at 37 °C
Experimental: as §1, §2

KDM7B (PHF8; KDM7B1–447) = experiment: MALDI-TOF MS demethylation activity assay, KDM7B (PHF8); type: biochemical, human; parameters: key to demethylation activity on methylated H1.4 peptide: 🟢: Indicates that clear demethylation activity was observed; 🟡: Indicates that low level demethylation activity was observed (<10% conversion after 1 h); 🔴: Indicates no activity under the stated conditions (1 μM KDM, 10 μM peptide); 🟡*: *Indicates demethylation activity was only observed with 5 μM KDM; details: peptide as substrate; MALDI-TOF MS; 1 μM KDM (* = only with 5 μM KDM), 10 μM peptide, 50 mM HEPES pH 7.5, Fe(II) 10 μM, ascorbate 100 μM, 2OG 200 μM, 1 h at 37 °C
Experimental: as §1, §3
(§4) N ^ε‐Trimethylated H3K4 binds to the plant homeobox domain of KDM7B, targeting the N ^ε‐dimethyllysine at H3K9 to the catalytic domain, and thus promoting demethylation 29, 44. To test whether similar targeting may occur with H1.4, promoting activity at H1.4K26, an H1.4 peptide was synthesised containing di‐N ^ε‐methyllysine at K26 and tri‐N ^ε‐methyllysine at K21 (i.e. at the equivalent position in the sequence to K4 in the H3 peptide, Fig. 1B, Table S1). Monomethylation at H1.4K21 has previously been observed by proteomic mass spectrometry 45. With the aim of enhancing activity, the enzyme concentration was increased from 1 μM to 5 μM, and time course analyses were conducted with both KDM7A and KDM7B, both with the new peptide (H1.4(18–32)K21me3K26me2) and the H1.4 peptides methylated only at K26 (Fig. 2B). […] Thus, it appears unlikely that N ^ε‐trimethylation at H1.4K21 promotes demethylation at H1.4K26 by KDM7B.

KDM7A (KDM7A38–480) = experiment: MALDI-TOF MS demethylation activity assay, KDM7A; type: biochemical, human; details: peptide as substrate; MALDI-TOF MS; 1 μM KDM, 10 μM peptide, 50 mM HEPES pH 7.5, Fe(II) 10 μM, ascorbate 100 μM, 2OG 200 μM, 1 mM TCEP, 1 h at 37 °C
Experimental: as §1, §2, §4

KDM4A (KDM4A1–359) = experiment: MALDI-TOF MS demethylation activity assay, KDM4A; type: biochemical, human; parameters: key: 🟢: Indicates that clear demethylation activity was observed; 🟡: Indicates that low level demethylation activity was observed (<10% conversion after 1 h); 🔴: Indicates no activity under the stated conditions (1 μM KDM, 10 μM peptide); 🟡*: *Indicates demethylation activity was only observed with 5 μM KDM; details: peptide as substrate, 1 μM KDM, 10 μM peptide, 50 mM HEPES pH 7.5, Fe(II) 10 μM, ascorbate 100 μM, 2OG 200 μM, 1 h at 37 °C
Experimental: as §1, §3

KDM4B (KDM4B1–359) = experiment: MALDI-TOF MS demethylation activity assay, KDM4B; type: biochemical, human; parameters: key: 🟢: Indicates that clear demethylation activity was observed; 🟡: Indicates that low level demethylation activity was observed (<10% conversion after 1 h); 🔴: Indicates no activity under the stated conditions (1 μM KDM, 10 μM peptide); 🟡*: *Indicates demethylation activity was only observed with 5 μM KDM; details: peptide as substrate, 1 μM KDM, 10 μM peptide, 50 mM HEPES pH 7.5, Fe(II) 10 μM, ascorbate 100 μM, 2OG 200 μM, 1 h at 37 °C
Experimental: as §1, §3

KDM4C (KDM4C1–359) = experiment: MALDI-TOF MS demethylation activity assay, KDM4C; type: biochemical, human; parameters: key: 🟢: Indicates that clear demethylation activity was observed; 🟡: Indicates that low level demethylation activity was observed (<10% conversion after 1 h); 🔴: Indicates no activity under the stated conditions (1 μM KDM, 10 μM peptide); 🟡*: *Indicates demethylation activity was only observed with 5 μM KDM; details: peptide as substrate, 1 μM KDM, 10 μM peptide, 50 mM HEPES pH 7.5, Fe(II) 10 μM, ascorbate 100 μM, 2OG 200 μM, 1 h at 37 °C
Experimental: as §1, §3

[1] = target: T1, KDM4A(1-359), catalytic domain of human histone lysine demethylase KDM4A (human, UniProt O75164 1-359); experiment: crystal structure; co-crystals of KDM4A(1-359).Ni(II).H1.4(18-32)K26me3.NOG; sitting drops at 4 °C, 0.1 M MIB buffer pH 6.0, 25% w/v PEG 1500; 10 mg/mL KDM4A, 5 mM peptide, 5 mM NOG, 4 mM NiCl2; details: both partners purified
T1 construct: KDM4A, human, catalytic domain, residues 1-359; In the crystal the active site holds Ni(II) (in place of Fe(II)) and N-oxalylglycine (NOG)
T1 sequence (looked up): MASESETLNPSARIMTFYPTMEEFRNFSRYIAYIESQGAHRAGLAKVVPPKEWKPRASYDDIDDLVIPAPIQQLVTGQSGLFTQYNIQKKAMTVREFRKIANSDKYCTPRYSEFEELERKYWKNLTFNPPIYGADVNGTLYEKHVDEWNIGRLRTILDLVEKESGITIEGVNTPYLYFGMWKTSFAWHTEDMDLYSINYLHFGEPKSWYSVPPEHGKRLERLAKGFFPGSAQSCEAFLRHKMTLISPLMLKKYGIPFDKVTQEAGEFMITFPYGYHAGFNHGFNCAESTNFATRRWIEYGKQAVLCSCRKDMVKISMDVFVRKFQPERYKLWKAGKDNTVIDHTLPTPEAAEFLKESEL

Molecule | demethylation activity on methylated H1.4 peptide (KDM3A (KDM3A515–1317)) | demethylation activity on methylated H1.4 peptide (KDM2A (KDM2A1–557)) | demethylation activity on methylated H1.4 peptide (KDM4D (KDM4D1–359)) | demethylation activity on methylated H1.4 peptide (KDM6B (KDM6B1141–1590)) | demethylation activity on methylated H1.4 peptide (KDM5C (KDM5C1–765)) | demethylation activity on methylated H1.4 peptide (KDM7B (PHF8; KDM7B1–447)) | demethylation activity on methylated H1.4 peptide (KDM7A (KDM7A38–480)) | demethylation activity on methylated H1.4 peptide (KDM4A (KDM4A1–359)) | demethylation activity on methylated H1.4 peptide (KDM4B (KDM4B1–359)) | demethylation activity on methylated H1.4 peptide (KDM4C (KDM4C1–359)) | binding result [1]
TPVKKKAR[Lys(Me)]SAGAAK [H1.4(18–32)K26me1, peptide of residues 18–32 of histone H1.4 with N ε-monomethyllysine at K26] | 🔴 | 🔴 | 🔴 | 🔴 | 🔴 | 🟡* | 🟡 (Indicates that low level demethylation activity was observed (<10% conversion after 1 h)) | 🔴 | 🔴 | 🔴 | –
B1 | – | – | – | – | – | – | – | – | – | – | binds
